Legend:
[1] = test system: pooled cryopreserved hepatocytes; test: Hepatic Stability Assay (in vitro half-life method); type: in vitro ADME; set-up: dose or concentration left out as unconfirmed; conditions: 37° C., 1×10^6 cells/mL, 0-6 hours, LC-MS/MS, 39.5 hours is the maximum detectable half life
Procedure, shortened: (§1)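 Pooled cryopreserved hepatocytes (1×10^6 cells/mL) incubated with compound at […] test concentration, 37° C.; samples at 0, 1, 3 and 6 h quantified by LC-MS/MS. Half-life from rate of compound disappearance, scaled to predicted hepatic clearance via well-stirred model.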

[2] = as above; type: in vitro ADME; set-up: dose or concentration left out as unconfirmed; conditions: pooled cryopreserved hepatocytes, 37° C., 1×10^6 cells/mL, 0-6 hours, LC-MS/MS, 39.5 hours is the maximum detectable half life, read-out: t½ (converted)
Procedure, shortened: as §1

[3] = test system: HBV AD38 viral particles in HepG2 cell line overexpressing NTCP; test: HBV DNA Quantification Assay; type: cell-based; conditions: Hepatitis B virus, HepG2, 120 h, HBV-infected HepG2-NTCP cells, 5 days incubation, HBV DNA in culture supernatant (QuantiGene 2.0); geometric mean of a minimum of four determinations
Procedure, shortened: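 Antiviral EC50 derived by four-parameter dose-response fit and given as geometric mean of at least four runs. Read-out was branched-DNA (QuantiGene 2.0) luminescence for HBV DNA in culture supernatant after 5 days of compound exposure. Cells: HepG2-NTCP infected 4 days beforehand with AD38 particles, 4000 genome equivalents per cell.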

Compound | t½ [1] [h] | half-life [2] [min] | EC50 [3] [nM]
CNC(=O)C1(NC(=O)C(=O)c2c(C)c(C(=O)Nc3ccc(F)c(Cl)c3)n3c2CCC3C)CC(F)(F)C1 (single isomer, unassigned) [Example 23, N-(3-chloro-4-fluorophenyl)-7-(2-((3,3-difluoro-1-(methylcarbamoyl)cyclobutyl)amino)-2-oxoacetyl)-3,6-dimethyl-2,3-dihydro-1H-pyrrolizine-5-carboxamide] | 9.6 | – | –
Cc1c(C(=O)C(=O)NC2(c3c[nH]nn3)CC2)c2n(c1C(=O)Nc1ccc(F)c(Cl)c1)CCC2 [Example 6, 7-(2-((1-(1H-1,2,3-Triazol-4-yl)cyclopropyl)amino)-2-oxoacetyl)-N-(3-chloro-4-fluorophenyl)-6-methyl-2,3-dihydro-1H-pyrrolizine-5-carboxamide] | – | 492 | 11.1
Cc1c(C(=O)C(=O)NC2(c3c[nH]nn3)CC2)c2n(c1C(=O)Nc1ccc(F)c(Cl)c1)C[C@@H](F)C2 [Example 46, (S)-7-(2-((1-(1H-1,2,3-triazol-4-yl)cyclopropyl)amino)-2-oxoacetyl)-N-(3-chloro-4-fluorophenyl)-2-fluoro-6-methyl-2,3-dihydro-1H-pyrrolizine-5-carboxamide] | – | 960 | 264
Cc1c(C(=O)C(=O)NC2(C(=O)N3CC4(C3)CS(=O)(=O)C4)CC(F)(F)C2)c2n(c1C(=O)Nc1ccc(F)c(Cl)c1)CCC2 [Example 13, N-(3-chloro-4-fluorophenyl)-7-(2-((1-(2,2-dioxido-2-thia-6-azaspiro[3.3]heptane-6-carbonyl)-3,3-difluorocyclobutyl)amino)-2-oxoacetyl)-6-methyl-2,3-dihydro-1H-pyrrolizine-5-carboxamide] | – | 984 | 252
Cc1c(C(=O)C(=O)NC2(c3c[nH]nn3)COC2)c2n(c1C(=O)Nc1ccc(F)c(F)c1)[C@@H]1C[C@@H]1C2 [Example 87, (1aR,6aR)-5-(2-((3-(1H-1,2,3-triazol-4-yl)oxetan-3-yl)amino)-2-oxoacetyl)-N-(3,4-difluorophenyl)-4-methyl-1,1a,6,6a-tetrahydrocyclopropa[b]pyrrolizine-3-carboxamide] | – | 378 | 12.5
CNC(=O)C1(NC(=O)C(=O)c2c(C)c(C(=O)Nc3ccc(F)c(Cl)c3)n3c2[C@H]2C[C@H]2C3)CC(F)(F)C1 [Example 34, (1aR,6bS)—N-(3-chloro-4-fluorophenyl)-6-(2-((3,3-difluoro-1-(methylcarbamoyl)cyclobutyl)amino)-2-oxoacetyl)-5-methyl-1,1a,2,6b-tetrahydrocyclopropa[a]pyrrolizine-4-carboxamide] | – | 1090 | 202
Cc1c(C(=O)C(=O)NC2(c3c[nH]nn3)CC2)c2n(c1C(=O)Nc1cc(F)c(F)cc1F)CCC2 [Example 90, 7-(2-((1-(1H-1,2,3-triazol-4-yl)cyclopropyl)amino)-2-oxoacetyl)-6-methyl-N-(2,4,5-trifluorophenyl)-2,3-dihydro-1H-pyrrolizine-5-carboxamide] | – | 1880 | 183
Cc1c(C(=O)C(=O)NC2(c3nncs3)CC2)c2n(c1C(=O)Nc1ccc(F)c(Cl)c1)CCC2 [Example 12, 7-(2-((1-(1,3,4-thiadiazol-2-yl)cyclopropyl)amino)-2-oxoacetyl)-N-(3-chloro-4-fluorophenyl)-6-methyl-2,3-dihydro-1H-pyrrolizine-5-carboxamide] | – | 384 | 5
C#CC1(NC(=O)C(=O)c2c(C)c(C(=O)Nc3ccc(F)c(Cl)c3)n3c2CCC3)CC(F)(F)C1 [Example 60, N-(3-chloro-4-fluorophenyl)-7-(2-((1-ethynyl-3,3-difluorocyclobutyl)amino)-2-oxoacetyl)-6-methyl-2,3-dihydro-1H-pyrrolizine-5-carboxamide] | – | 234 | 1.8
Cc1c(C(=O)C(=O)NC2(c3c[nH]nn3)CC(F)(F)C2)c2n(c1C(=O)Nc1ccc(F)c(Cl)c1)CCC2 [Example 29, N-(3-chloro-4-fluorophenyl)-7-(2-((3,3-difluoro-1-(1H-1,2,3-triazol-4-yl)cyclobutyl)amino)-2-oxoacetyl)-6-methyl-2,3-dihydro-1H-pyrrolizine-5-carboxamide] | – | 966 | 3.1
Cc1c(C(=O)C(=O)NC2(c3c[nH]nn3)CC(F)(F)C2)c2n(c1C(=O)Nc1ccc(F)cc1)C[C@H](F)C2 [Example 48, (R)-7-(2-((3,3-difluoro-1-(1H-1,2,3-triazol-4-yl)cyclobutyl)amino)-2-oxoacetyl)-2-fluoro-N-(4-fluorophenyl)-6-methyl-2,3-dihydro-1H-pyrrolizine-5-carboxamide] | – | 474 | 6.5
Cc1c(C(=O)C(=O)NC2(c3c[nH]nn3)CC2)c2n(c1C(=O)Nc1ccc(F)c(Cl)c1)[C@@H]1C[C@@H]1C2 [Example 52, (1aR,6aR)-5-(2-((1-(1H-1,2,3-triazol-4-yl)cyclopropyl)amino)-2-oxoacetyl)-N-(3-chloro-4-fluorophenyl)-4-methyl-1,1a,6,6a-tetrahydrocyclopropa[b]pyrrolizine-3-carboxamide] | – | 252 | 7.7
Cc1c(C(=O)C(=O)NC2(c3c[nH]nn3)CC(F)(F)C2)c2n(c1C(=O)Nc1ccc(F)c(F)c1)[C@@H]1C[C@@H]1C2 [Example 42, (1aR,6aR)-5-(2-((3,3-difluoro-1-(1H-1,2,3-triazol-4-yl)cyclobutyl)amino)-2-oxoacetyl)-N-(3,4-difluorophenyl)-4-methyl-1,1a,6,6a-tetrahydrocyclopropa[b]pyrrolizine-3-carboxamide] | – | 210 | 2.1
Cc1c(C(=O)C(=O)NC2(C(=O)NC3(C)CS(=O)(=O)C3)CC(F)(F)C2)c2n(c1C(=O)Nc1ccc(F)c(Cl)c1)CCC2 [Example 9, N-(3-chloro-4-fluorophenyl)-7-(2-((3,3-difluoro-1-((3-methyl-1,1-dioxidothietan-3-yl)carbamoyl)cyclobutyl)amino)-2-oxoacetyl)-6-methyl-2,3-dihydro-1H-pyrrolizine-5-carboxamide] | – | 702 | 103
CNC(=O)C1(NC(=O)C(=O)c2c(C)c(C(=O)Nc3ccc(F)c(Cl)c3)n3c2C[C@@H](O)C3)CC(F)(F)C1 [Example 16, (R)—N-(3-chloro-4-fluorophenyl)-7-(2-((3,3-difluoro-1-(methylcarbamoyl)cyclobutyl)amino)-2-oxoacetyl)-2-hydroxy-6-methyl-2,3-dihydro-1H-pyrrolizine-5-carboxamide] | – | 708 | 456
CNC(=O)C1(NC(=O)C(=O)c2c(C)c(C(=O)Nc3ccc(F)c(C#N)c3)n3c2CCC3C)CC(F)(F)C1 (stereo not shown) [Example 19, N-(3-cyano-4-fluorophenyl)-7-(2-((3,3-difluoro-1-(methylcarbamoyl)cyclobutyl)amino)-2-oxoacetyl)-3,6-dimethyl-2,3-dihydro-1H-pyrrolizine-5-carboxamide] | – | 1100 | 167
CNC(=O)C1(NC(=O)C(=O)c2c(C)c(C(=O)Nc3ccnc(C(F)F)c3F)n3c2CCC3)CC(F)(F)C1 [Example 147, 7-(2-((3,3-difluoro-1-(methylcarbamoyl)cyclobutyl)amino)-2-oxoacetyl)-N-(2-(difluoromethyl)-3-fluoropyridin-4-yl)-6-methyl-2,3-dihydro-1H-pyrrolizine-5-carboxamide] | – | 1490 | 103
Cc1c(C(=O)C(=O)NC2(c3c[nH]nn3)CC2)c2n(c1C(=O)Nc1ccc(F)c(C(F)F)c1)CCC2 [Example 77, 7-(2-((1-(1H-1,2,3-triazol-4-yl)cyclopropyl)amino)-2-oxoacetyl)-N-(3-(difluoromethyl)-4-fluorophenyl)-6-methyl-2,3-dihydro-1H-pyrrolizine-5-carboxamide] | – | 1330 | 19
Cc1c(C(=O)C(=O)NC2(c3c[nH]nn3)CC(F)(F)C2)c2n(c1C(=O)Nc1ccc(F)c(C(F)F)c1)CCC2 [Example 89, 7-(2-((3,3-difluoro-1-(1H-1,2,3-triazol-4-yl)cyclobutyl)amino)-2-oxoacetyl)-N-(3-(difluoromethyl)-4-fluorophenyl)-6-methyl-2,3-dihydro-1H-pyrrolizine-5-carboxamide] | – | 618 | 2.9
CNC(=O)C1(NC(=O)C(=O)c2c(C)c(C(=O)Nc3cc(F)c(F)c(F)c3)n3c2C[C@H]2C[C@H]23)CC(F)(F)C1 [Example 38, (1aR,6aR)-5-(2-((3,3-difluoro-1-(methylcarbamoyl)cyclobutyl)amino)-2-oxoacetyl)-4-methyl-N-(3,4,5-trifluorophenyl)-1,1a,6,6a-tetrahydrocyclopropa[b]pyrrolizine-3-carboxamide] | – | 828 | 13
Cc1c(C(=O)C(=O)NC2(c3c[nH]nn3)CC2)c2n(c1C(=O)Nc1cc(Cl)cc(Cl)c1)CCC2 [Example 102, 7-(2-((1-(1H-1,2,3-triazol-4-yl)cyclopropyl)amino)-2-oxoacetyl)-N-(3,5-dichlorophenyl)-6-methyl-2,3-dihydro-1H-pyrrolizine-5-carboxamide] | – | 288 | 112
Cc1c(C(=O)C(=O)NC2(c3cnn[nH]3)CC(F)(F)C2)c2n(c1C(=O)Nc1ccc(F)cc1)[C@@H]1C[C@@H]1C2 [Example 100, (1aR,6aR)-5-(2-((3,3-difluoro-1-(1H-1,2,3-triazol-5-yl)cyclobutyl)amino)-2-oxoacetyl)-N-(4-fluorophenyl)-4-methyl-1,1a,6,6a-tetrahydrocyclopropa[b]pyrrolizine-3-carboxamide] | – | 186 | 3.7

Reference: patent US10328053B2 (Gilead Sciences, Inc., priority 2016, dated 2019)
